Reference: patent publication US20250025451A1, “TREATMENT OF CANCER WITH KDM4 INHIBITORS” (Celgene Corporation, priority 2021, published 2025)

Tested on: 301 cancer cell lines from different tumor types
Test: 2D cell viability inhibition assay, broad cancer cell line panel (OncoPanel; CellTiter-Glo)
Type: cell-based
Parameters: key to Emax: % of DMSO control (minimum response over dose range); AUC: scale not given here
Settings: for AUC / Emax: 168 hours; for Emax: in % (unit assumed)
Method: In a larger screening study, compound 1 was evaluated across a broad cancer cell line panel (OncoPanel; HD Biosciences) composed of 301 cancer cell lines from different tumor types.
2D cell viability inhibition assays were performed in multiwell plates seeded with cells from the panel. After seeding, the plates were cultured overnight in a humidified incubator at 37° C. to promote adherence. Assays were initiated in individual wells by adding either DMSO as a vehicle control, growth media as a blank, or serially diluted compound 1 (10 μM to 0.0005 μM with 1:3 serial dilution). Cultures were incubated for 168 hours after which the number of viable cells in each test well was assessed using the CellTiter-Glo® Luminescent Cell Viability Assay. Luminescence readouts were performed using an EnVision® Multilabel Reader and the compound 1 readouts were normalized to the DMSO control readouts, expressed as a percent of the control. Outliers were flagged out by visual inspection. Percent of control was plotted against the corresponding compound 1 concentration and the absolute IC50 value was determined using four-parameter logistic non-linear regression as the concentration where inhibition was 50% of the control. […] Emax was recorded as the minimum in y with the compound dose range. […] The sensitive/moderate/resistant calls for each cell line was determined by visually inspecting the resulting clustering dendrogram. All the analyses were done in R Core Team.

[1] = Homo sapiens, NCI-H1650, 168 h, NCIH1650 (lung, bronchioloalveolar adenocarcinoma)
[2] = Homo sapiens, NCI-H1755, 168 h, NCIH1755 (lung, adenocarcinoma)
[3] = Homo sapiens, NCI-H1838, 168 h, NCIH1838 (lung, non-small cell carcinoma)
[4] = Homo sapiens, NCI-H2009, 168 h, NCIH2009 (lung, adenocarcinoma)
[5] = Homo sapiens, ONS-76, 168 h, ONS76 (central nervous system, NS)
[6] = Homo sapiens, OVCAR-3, 168 h, NIHOVCAR3 (ovary, NS)
[7] = Homo sapiens, RPMI-7951, 168 h, RPMI7951 (skin, NS)
[8] = Homo sapiens, SAOS-2, 168 h, SAOS2 (bone, NS)
[9] = Homo sapiens, SCC-9, 168 h, SCC9 (upper aerodigestive tract, squamous cell carcinoma)
[10] = Homo sapiens, SCC-15, 168 h, SCC15 (upper aerodigestive tract, squamous cell carcinoma)
[11] = Homo sapiens, SCC-25, 168 h, SCC25 (upper aerodigestive tract, squamous cell carcinoma)
[12] = Homo sapiens, SK-HEP1, 168 h, SKHEP1 (liver, adenocarcinoma)
[13] = Homo sapiens, SK-MEL-24, 168 h, SKMEL24 (skin, NS)
[14] = Homo sapiens, SK-N-SH, 168 h, SKNSH (autonomic ganglia, NS)
[15] = Homo sapiens, SK-OV-3, 168 h, SKOV3 (ovary, adenocarcinoma)
[16] = Homo sapiens, SNU-C1, 168 h, SNUC1 (large intestine, adenocarcinoma)
[17] = Homo sapiens, SW837, 168 h, SW837 (large intestine, adenocarcinoma)
[18] = Homo sapiens, SW1417, 168 h, SW1417 (large intestine, adenocarcinoma)
[19] = Homo sapiens, TE-15, 168 h, TE15 (oesophagus, squamous cell carcinoma)
[20] = Homo sapiens, UACC-812, 168 h, UACC812 (breast, ductal carcinoma)
[21] = Homo sapiens, VCaP, 168 h, VCAP (prostate, adenocarcinoma)
[22] = KASUMI1 (haematopoietic and lymphoid tissue, acute myeloid leukaemia)
[23] = KG1 (haematopoietic and lymphoid tissue, acute myeloid leukaemia)
[24] = KURAMOCHI (ovary, undifferentiated carcinoma)
[25] = KYSE70 (oesophagus, squamous cell carcinoma)
[26] = LU99 (lung, large cell carcinoma)
[27] = MDAMB157 (breast, ductal carcinoma)
[28] = MDAMB 175 VII (breast, ductal carcinoma)
[29] = NCI-H1435, 168 h, NCIH1435 (lung, non-small cell carcinoma)
[30] = NCIH596 (lung, mixed adenosquamous carcinoma)
[31] = NCIH1395 (lung, adenocarcinoma)
[32] = NCIH1435 (lung, non-small cell carcinoma)
[33] = NCIH1563 (lung, adenocarcinoma)
[34] = NCIH1573 (lung, adenocarcinoma)
[35] = NCIH1650 (lung, bronchioloalveolar adenocarcinoma)
[36] = NCIH1755 (lung, adenocarcinoma)
[37] = NCIH1838 (lung, non-small cell carcinoma)
[38] = NCIH2009 (lung, adenocarcinoma)
[39] = NMCG1 (central nervous system, NS)
[40] = ONS76 (central nervous system, NS)
[41] = SCC9 (upper aerodigestive tract, squamous cell carcinoma)
[42] = SCC15 (upper aerodigestive tract, squamous cell carcinoma)
[43] = SCC25 (upper aerodigestive tract, squamous cell carcinoma)
[44] = SNUC1 (large intestine, adenocarcinoma)
[45] = SW579 (thyroid, anaplastic carcinoma)
[46] = SW579, 168 h, SW579 (thyroid, anaplastic carcinoma)
[47] = SW837 (large intestine, adenocarcinoma)
[48] = SW1271 (lung, small cell carcinoma)
[49] = SW1271, 168 h, SW1271 (lung, small cell carcinoma)
[50] = SW1417 (large intestine, adenocarcinoma)
[51] = T24 (urinary tract, transitional cell carcinoma)
[52] = TE1 (oesophagus, squamous cell carcinoma)
[53] = TE8 (oesophagus, squamous cell carcinoma)
[54] = TE15 (oesophagus, squamous cell carcinoma)
[55] = UACC812 (breast, ductal carcinoma)
[56] = VCAP (prostate, adenocarcinoma)

Work on `CC(C)c1ccc(N(C)c2ccc3c(c2)OCC[C@H]3CNc2cnccc2C(=O)O)cc1` [Compound 1, 3-({[(4R)-7-{methyl[4-(propan-2-yl)phenyl]amino}-3,4-dihydro-2H-1-benzopyran-4-yl]methyl}amino)pyridine-4-carboxylic acid] yielded an EC50 [1] of no less than 10 µM, an IC50 [1] of no less than 10 µM and an EC50 [2] of no less than 10 µM. For the same compound, the IC50 [2] was no less than 10 µM, the EC50 [3] was no less than 10 µM and the IC50 [3] was no less than 10 µM. For the same compound, the EC50 [4] was 8.02 µM, the IC50 [4] was no less than 10 µM and the EC50 [5] was no less than 10 µM. For the same compound, the IC50 [5] was no less than 10 µM, the EC50 [6] was no less than 10 µM and the IC50 [6] was no less than 10 µM. It also gave an EC50 [7] of no less than 10 µM, an IC50 [7] of no less than 10 µM and an EC50 [8] of no less than 10 µM. The IC50 [8] was no less than 10 µM, the EC50 [9] was no less than 10 µM and the IC50 [9] was no less than 10 µM. For the same compound, the EC50 [10] was no less than 10 µM, the IC50 [10] was no less than 10 µM and the EC50 [11] was no less than 10 µM. It also gave an IC50 [11] of no less than 10 µM, an EC50 [12] of no less than 10 µM and an IC50 [12] of no less than 10 µM. The EC50 [13] was no less than 10 µM, the IC50 [13] was no less than 10 µM and the EC50 [14] was no less than 10 µM. For the same compound, the IC50 [14] was no less than 10 µM, the EC50 [15] was no less than 10 µM and the IC50 [15] was no less than 10 µM. For the same compound, the EC50 [16] was no less than 10 µM, the IC50 [16] was no less than 10 µM and the EC50 [17] was no less than 10 µM. It also gave an IC50 [17] of no less than 10 µM, an EC50 [18] of no less than 10 µM and an IC50 [18] of no less than 10 µM. The EC50 [19] was no less than 10 µM, the IC50 [19] was no less than 10 µM and the EC50 [20] was 6.95 µM. For the same compound, the IC50 [20] was no less than 10 µM, the EC50 [21] was no less than 10 µM and the IC50 [21] was no less than 10 µM. The AUC [22] was 0.8823, the Emax [22] was 81.08 and the AUC [23] was 0.9592. The Emax [23] was 80.44, the AUC [24] was 0.8742 and the Emax [24] was 73.85. For the same compound, the AUC [25] was 0.6942, the Emax [25] was 50.19 and the AUC [26] was 0.79. It also gave an Emax [26] of 64.66, an AUC (MALME3M (skin, NS)) of 0.9867 and an Emax (MALME3M (skin, NS)) of 94.08. For the same compound, the AUC [27] was 0.8362, the Emax [27] was 64.71 and the AUC [28] was 0.7385. The Emax [28] was 60.66, the AUC (MDAMB231 (breast, NS)) was 0.7262 and the Emax (MDAMB231 (breast, NS)) was 55.94. It also gave an AUC (MDAMB361 (breast, NS)) of 1.117, an Emax (MDAMB361 (breast, NS)) of 94.55 and an AUC (MDAMB415 (breast, NS)) of 0.9413. The Emax (MDAMB415 (breast, NS)) was 83.39, the AUC (MDAMB436 (breast, NS)) was 0.8438 and the Emax (MDAMB436 (breast, NS)) was 70.42. For the same compound, the AUC (MDAMB468 (breast, NS)) was 0.6972, the Emax (MDAMB468 (breast, NS)) was 50.87 and the AUC (MEWO (skin, NS)) was 0.7237. It also gave an Emax (MEWO (skin, NS)) of 56.56, an EC50 [29] of no less than 10 µM and an IC50 [29] of no less than 10 µM. For the same compound, the AUC (NCIH441 (lung, adenocarcinoma)) was 0.7804, the Emax (NCIH441 (lung, adenocarcinoma)) was 67.49 and the AUC [30] was 0.8151. The Emax [30] was 61.34, the AUC [31] was 0.8542 and the Emax [31] was 70.68. For the same compound, the AUC [32] was 0.7612, the Emax [32] was 60.04 and the AUC [33] was 0.9652. For the same compound, the Emax [33] was 93.507, the AUC [34] was 0.7482 and the Emax [34] was 53.57. The AUC [35] was 0.8746, the Emax [35] was 68.07 and the AUC [36] was 1.29. The Emax [36] was 123.3293, the AUC [37] was 0.7858 and the Emax [37] was 60.0585. It also gave an AUC [38] of 0.7914, an Emax [38] of 55.69 and an AUC (NIHOVCAR3 (ovary, NS)) of 0.7771. It also gave an Emax (NIHOVCAR3 (ovary, NS)) of 59.47, an AUC [39] of 0.7013 and an Emax [39] of 47.06. For the same compound, the AUC [40] was 0.7336, the Emax [40] was 54.63 and the AUC (RPMI7951 (skin, NS)) was 0.8067. It also gave an Emax (RPMI7951 (skin, NS)) of 66.31, an AUC (SAOS2 (bone, NS)) of 1.081 and an Emax (SAOS2 (bone, NS)) of 92.52. For the same compound, the AUC [41] was 0.9424, the Emax [41] was 69.25 and the AUC [42] was 0.9489. It also gave an Emax [42] of 90.39, an AUC [43] of 0.7789 and an Emax [43] of 62.3079. It also gave an AUC (SKHEP1 (liver, adenocarcinoma)) of 0.7091, an Emax (SKHEP1 (liver, adenocarcinoma)) of 44.3029 and an AUC (SKMEL24 (skin, NS)) of 0.7882. The Emax (SKMEL24 (skin, NS)) was 58.12, the AUC (SKMEL31 (skin, NS)) was 0.7393 and the Emax (SKMEL31 (skin, NS)) was 59.49. The AUC (SKNSH (autonomic ganglia, NS)) was 0.7295, the Emax (SKNSH (autonomic ganglia, NS)) was 53.89 and the AUC (SKOV3 (ovary, adenocarcinoma)) was 0.9901. The Emax (SKOV3 (ovary, adenocarcinoma)) was 96.03, the AUC [44] was 0.7478 and the Emax [44] was 55.45. For the same compound, the AUC [45] was 0.9203, the Emax [45] was 79.98 and the EC50 [46] was no less than 10 µM. The IC50 [46] was no less than 10 µM, the AUC [47] was 0.7109 and the Emax [47] was 46.73. It also gave an AUC [48] of 0.8179, an Emax [48] of 65.38 and an EC50 [49] of no less than 10 µM. It also gave an IC50 [49] of no less than 10 µM, an AUC [50] of 0.9634 and an Emax [50] of 91.96. It also gave an AUC [51] of 0.9289, an Emax [51] of 75.74 and an AUC [52] of 0.938. It also gave an Emax [52] of 84.54, an AUC [53] of 0.816 and an Emax [53] of 72.1307. The AUC [54] was 1.084, the Emax [54] was 89.04 and the AUC [55] was 0.8418. For the same compound, the Emax [55] was 62.67, the AUC [56] was 0.7822 and the Emax [56] was 62.6.
